Source: ChEMBL document CHEMBL1201862, “PubChem BioAssay data set” (2004)
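All cell lines were grown in 96-well plates and treated with compound for 48 hours. GI50: concentration for 50% inhibition of growth.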 Active and inactive are the calls of the source. No stated cut-off is given here; in the data, active = GI50 up to about 1.1 µM and inactive = higher.

What was measured:
Test in all cases: inhibition of tumour cell growth, NCI panel, 48 h
M14 = tested on: M14
UO-31 = tested on: UO-31
M19-MEL = tested on: M19-MEL
EKVX = tested on: EKVX
TK-10 = tested on: TK-10
SN12C = tested on: SN12C
T47D = tested on: T47D
KM-20L2 = tested on: KM-20L2
MOLT-4 = tested on: MOLT-4
MDA-MB-435 = tested on: MDA-MB-435
DU-145 = tested on: DU-145
SK-MEL-28 = tested on: SK-MEL-28
DMS-273 = tested on: DMS-273
OVCAR-3 = tested on: OVCAR-3
SF-539 = tested on: SF-539
Malme-3M = tested on: Malme-3M
A549 = tested on: A549
MDA-N = tested on: MDA-N
SF-268 = tested on: SF-268
BT-549 = tested on: BT-549

Measured: GI50

CS(=O)(=O)OCCCNCCCOS(C)(=O)=O
inactive: M14 753 µM | UO-31 1990 µM | M19-MEL 1580 µM | EKVX 1810 µM | TK-10 2020 µM | SN12C 533 µM | T47D 573 µM | KM-20L2 1990 µM | MOLT-4 189 µM | MDA-MB-435 2340 µM | DU-145 627 µM | SK-MEL-28 2440 µM | DMS-273 328 µM | OVCAR-3 2630 µM | SF-539 1270 µM | Malme-3M 1590 µM | A549 741 µM | MDA-N 2350 µM | SF-268 879 µM | BT-549 1270 µM

CCCCCC(/C=C/c1ncccc1OCCCCCC(=O)O)=N\NC1=NCCN1
inactive: M14 > 100 µM | UO-31 > 100 µM | M19-MEL > 100 µM | EKVX > 100 µM | TK-10 > 100 µM | SN12C 94.4 µM | KM-20L2 > 100 µM | MOLT-4 62.7 µM | SK-MEL-28 > 100 µM | DMS-273 42.9 µM | OVCAR-3 89.9 µM | SF-539 76 µM | Malme-3M > 100 µM | A549 > 100 µM | SF-268 > 100 µM

O=C(CC1Sc2ccccc2NC1=O)Nc1ccc(Cl)cc1 (stereo not given)
inactive: M14 92.5 µM | UO-31 > 100 µM | M19-MEL > 100 µM | EKVX > 100 µM | TK-10 > 100 µM | SN12C > 100 µM | KM-20L2 89.1 µM | MOLT-4 > 100 µM | SK-MEL-28 > 100 µM | DMS-273 83.4 µM | OVCAR-3 > 100 µM | SF-539 50.2 µM | Malme-3M 46.2 µM | A549 91.8 µM | SF-268 38.5 µM

OCCN1CCN(CCO)Cc2ccccc2OCCOc2ccccc2C1
inactive: M14 > 100 µM | UO-31 > 100 µM | M19-MEL > 100 µM | EKVX > 100 µM | TK-10 > 100 µM | SN12C > 100 µM | KM-20L2 > 100 µM | MOLT-4 > 100 µM | SK-MEL-28 > 100 µM | DMS-273 > 100 µM | OVCAR-3 > 100 µM | SF-539 > 100 µM | Malme-3M > 100 µM | A549 > 100 µM | SF-268 > 100 µM
